Test results taken from patent US20170348258A1, “3-Amino Benzamide Derivative Serving As B-Lactam Auxiliary Antibiotic, Preparation Method and Use Thereof” (THE HONG KONG POLYTECHNIC UNIVERSITY, priority 2014, published 2017).

Legend:
[1] = molecular target: T1, B. subtilis FtsZ-eGFP fusion protein (Bacillus subtilis, UniProt P17865); test: Fluorescence microscopy of FtsZ-eGFP localization; format: cell-based; details: 3 μM F332, 4 hours
T1 construct: expressed in transfected cells; host or cells: B. subtilis 168 transformed with pFZ-FtsZ-eGFP
Description: The localization of the filamentation in B. subtilis that induced by F332 was performed by fluorescence microscopy using the cell division protein FtsZ identified by a green fluorescent protein. The expression plasmid of the FtsZ-eGFP fusion protein was constructed as follows (the structure of the plasmid was shown in FIG. 10a).
to amplify the eGFP gene fragment, with about 700 base pairs. Two fragments were ligated by overlap extension PCR method and then digested with endonucleases EcoRI and BamHI. They were ligated into the corresponding cleavage site of pFZ2.0 and transformed into E. coli BL21 (DE3) and screened on chloramphenicol plates to obtain the plasmid pFZ-FtsZ-eGFP. The plasmid extracted was transformed into B. subtilis 168 and grown in LB medium containing chloramphenicol. The expression of FtsZ-eGFP gene was observed by adding different concentrations of lactose or IPTG
The B. subtilis shown in FIGS. 10b and 10c was cultured in the absence of F332.
The B. subtilis shown in FIGS. 10d and 10e was cultured in the presence of F332. […] Thus, the expression of the protein was not only at the position where cell division was performed.

MRSA strain 2490 = test: FICI of F332 with antibiotics; format: cell-based, S. aureus
MRSA strain 417 = test: FICI of F332 with antibiotics; format: cell-based, S. aureus
MRSA strain 3589 = test: FICI of F332 with antibiotics; format: cell-based, S. aureus
MRSA strain 256 = test: FICI of F332 with antibiotics; format: cell-based, S. aureus
MRSA strain 3332 = test: FICI of F332 with antibiotics; format: cell-based, S. aureus
MRSA strain 3411 = test: FICI of F332 with antibiotics; format: cell-based, S. aureus
MRSA strain 1136 = test: FICI of F332 with antibiotics; format: cell-based, S. aureus
[2] = system: MRSA strain #1749 (ATCC strain); test: FICI of F332 with antibiotics; format: cell-based, S. aureus
MRSA strain 1402 = test: FICI of F332 with antibiotics; format: cell-based, S. aureus
[3] = system: MRSA strain #1717 (ATCC strain); test: FICI of F332 with antibiotics; format: cell-based, S. aureus
MRSA strain 2224 = test: FICI of F332 with antibiotics; format: cell-based, S. aureus
MRSA strain 358 = test: FICI of F332 with antibiotics; format: cell-based, S. aureus
MRSA strain 774 = test: FICI of F332 with antibiotics; format: cell-based, S. aureus
MRSA strain 200 = test: FICI of F332 with antibiotics; format: cell-based, S. aureus
MRSA strain 85 = test: FICI of F332 with antibiotics; format: cell-based, S. aureus

SMILES: CCCCCCCCCNc1ccc(F)c(C(N)=O)c1F [Compound F332, 2,6-difluoro-3-(nonylamino)benzamide]
- localization of FtsZ-eGFP in B. subtilis 168 cells [1]: Green fluorescence appeared in multiple parts of B. subtilis cells
- FICI of F332 combined with Amoxicillin (MRSA strain 2490): 0.56
- FICI of F332 combined with Cefuroxime (MRSA strain 2490): 0.19
- FICI of F332 combined with Cloxacillin (MRSA strain 2490): 0.56
- FICI of F332 combined with Meropenem (MRSA strain 2490): 2.25
- FICI of F332 combined with Meticillin (MRSA strain 2490): 0.25
- FICI of F332 combined with Amoxicillin (MRSA strain 417): 0.27
- FICI of F332 combined with Cefuroxime (MRSA strain 417): 0.06
- FICI of F332 combined with Cloxacillin (MRSA strain 417): 0.09
- FICI of F332 combined with Meropenem (MRSA strain 417): 0.19
- FICI of F332 combined with Meticillin (MRSA strain 417): 0.06
- FICI of F332 combined with Amoxicillin (MRSA strain 3589): 1.06
- FICI of F332 combined with Cefuroxime (MRSA strain 3589): 0.25
- FICI of F332 combined with Cloxacillin (MRSA strain 3589): 0.31
- FICI of F332 combined with Meropenem (MRSA strain 3589): 1.50
- FICI of F332 combined with Meticillin (MRSA strain 3589): 0.52
- FICI of F332 combined with Amoxicillin (MRSA strain 256): 0.08
- FICI of F332 combined with Cefuroxime (MRSA strain 256): 0.01
- FICI of F332 combined with Cloxacillin (MRSA strain 256): 0.13
- FICI of F332 combined with Meropenem (MRSA strain 256): 4.01
- FICI of F332 combined with Meticillin (MRSA strain 256): 0.04
- FICI of F332 combined with Amoxicillin (MRSA strain 3332): 0.63
- FICI of F332 combined with Cefuroxime (MRSA strain 3332): 0.13
- FICI of F332 combined with Cloxacillin (MRSA strain 3332): 0.38
- FICI of F332 combined with Meropenem (MRSA strain 3332): 2.25
- FICI of F332 combined with Meticillin (MRSA strain 3332): 0.28
- FICI of F332 combined with Amoxicillin (MRSA strain 3411): 2.02
- FICI of F332 combined with Cefuroxime (MRSA strain 3411): 1.00
- FICI of F332 combined with Cloxacillin (MRSA strain 3411): 0.53
- FICI of F332 combined with Meropenem (MRSA strain 3411): 3.00
- FICI of F332 combined with Meticillin (MRSA strain 3411): 1.02
- FICI of F332 combined with Amoxicillin (MRSA strain 1136): 1.03
- FICI of F332 combined with Cefuroxime (MRSA strain 1136): 0.13
- FICI of F332 combined with Cloxacillin (MRSA strain 1136): 0.38
- FICI of F332 combined with Meropenem (MRSA strain 1136): 4.50
- FICI of F332 combined with Meticillin (MRSA strain 1136): 0.31
- FICI of F332 combined with Amoxicillin [2]: 1.03
- FICI of F332 combined with Cefuroxime [2]: 1.13
- FICI of F332 combined with Cloxacillin [2]: 1.25
- FICI of F332 combined with Meropenem [2]: 10.0
- FICI of F332 combined with Meticillin [2]: 1.06
- FICI of F332 combined with Amoxicillin (MRSA strain 1402): 1.02
- FICI of F332 combined with Cefuroxime (MRSA strain 1402): 0.63
- FICI of F332 combined with Cloxacillin (MRSA strain 1402): 0.75
- FICI of F332 combined with Meropenem (MRSA strain 1402): 5.00
- FICI of F332 combined with Meticillin (MRSA strain 1402): 0.56
- FICI of F332 combined with Amoxicillin [3]: 1.06
- FICI of F332 combined with Cefuroxime [3]: 1.13
- FICI of F332 combined with Cloxacillin [3]: 2.50
- FICI of F332 combined with Meropenem [3]: 3.00
- FICI of F332 combined with Meticillin [3]: 1.13
- FICI of F332 combined with Amoxicillin (MRSA strain 2224): 0.19
- FICI of F332 combined with Cefuroxime (MRSA strain 2224): 0.25
- FICI of F332 combined with Cloxacillin (MRSA strain 2224): 0.25
- FICI of F332 combined with Meropenem (MRSA strain 2224): 4.01
- FICI of F332 combined with Meticillin (MRSA strain 2224): 0.13
- FICI of F332 combined with Amoxicillin (MRSA strain 358): 0.27
- FICI of F332 combined with Cefuroxime (MRSA strain 358): 1.13
- FICI of F332 combined with Cloxacillin (MRSA strain 358): 1.06
- FICI of F332 combined with Meropenem (MRSA strain 358): 129.0
- FICI of F332 combined with Meticillin (MRSA strain 358): 0.25
- FICI of F332 combined with Amoxicillin (MRSA strain 774): 0.03
- FICI of F332 combined with Cefuroxime (MRSA strain 774): 0.01
- FICI of F332 combined with Cloxacillin (MRSA strain 774): 0.50
- FICI of F332 combined with Meropenem (MRSA strain 774): 0.13
- FICI of F332 combined with Meticillin (MRSA strain 774): 0.26
- FICI of F332 combined with Amoxicillin (MRSA strain 200): 0.02
- FICI of F332 combined with Cefuroxime (MRSA strain 200): 1.00
- FICI of F332 combined with Cloxacillin (MRSA strain 200): 1.00
- FICI of F332 combined with Meropenem (MRSA strain 200): 8.01
- FICI of F332 combined with Meticillin (MRSA strain 200): 0.25
- FICI of F332 combined with Amoxicillin (MRSA strain 85): 0.04
- FICI of F332 combined with Cefuroxime (MRSA strain 85): 0.25
- FICI of F332 combined with Cloxacillin (MRSA strain 85): 1.00
- FICI of F332 combined with Meropenem (MRSA strain 85): 4.01
- FICI of F332 combined with Meticillin (MRSA strain 85): 0.50
